These results are taken from patent US11723886B2, “Targeting ocular diseases with novel APE1/Ref-1 inhibitors” (Indiana University Research and Technology Corporation, priority 2018, dated 2023).

For data set [1], the system named is NF-κB and HIF-1α activity. As to conditions: retinal pigment epithelial cells; concomitant reduction in VEGF expression; cited from earlier work.
The test system of data set [2] is laser-induced choroidal neovascularization. Conditions: delivered intravitreally; cited from earlier work.
Data set [3] has as its system retinal neovascularization. As to conditions: delivered intravitreally; cited from earlier work.
The test system of data set [4] is retinal and choroidal endothelial cells. Conditions: cited from earlier work.
Data set [5] concerns the target Ref-1/APE1 endonuclease activity (Homo sapiens, UniProt P27695). As to conditions: cited from earlier work.
Data set [6] deals with APE1 repair activity in neurons. As to conditions: cited from earlier work.
For data set [7], the system named is total vessel density and VEGF expression. As to conditions: stroke in type one diabetes mellitus rats; cited from earlier work.
Data set [8] has as its system laser-induced choroidal neovascularization.

Entries after “also recorded” stand apart in the source; their conditions may differ.

Chain of Ref-1/APE1 endonuclease activity (P27695 whole entry): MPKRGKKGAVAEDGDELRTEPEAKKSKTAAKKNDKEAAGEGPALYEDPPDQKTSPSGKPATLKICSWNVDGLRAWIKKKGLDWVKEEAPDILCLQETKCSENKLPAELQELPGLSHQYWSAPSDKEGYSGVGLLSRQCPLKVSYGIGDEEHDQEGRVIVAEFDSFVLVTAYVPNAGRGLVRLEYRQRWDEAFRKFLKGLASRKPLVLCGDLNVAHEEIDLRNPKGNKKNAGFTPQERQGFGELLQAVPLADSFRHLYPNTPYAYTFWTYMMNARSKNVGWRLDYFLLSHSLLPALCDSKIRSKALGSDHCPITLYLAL

As for `CCCCCCCCC/C(=C\C1=C(C)C(=O)C(OC)=C(OC)C1=O)C(=O)O` [APX3330], the “NF-κB and HIF-1α activity” value in data set [1] was “reduced both NF-κB and HIF-1α activity”. Moreover, the “neovascularization, L-CNV” value in data set [2] is reported as “reduced neovascularization”. Further, the “neovascularization, VLDLR knockout mouse” value in data set [3] was “reduced neovascularization”. For the same molecule, the “in vitro angiogenesis (proliferation, migration, tube formation)” value in data set [4] was “block in vitro angiogenesis”. Moreover, in data set [5], the “effect on endonuclease / APE1 activity” value is given as “does not affect the protein's endonuclease activity; also recorded: do not inhibit APE1 activity”. In addition, in data set [6], the “APE1 repair activity in neurons” value was “can enhance APE1 repair activity”. In data set [7], the “total vessel density and VEGF expression” value is “significantly decreased total vessel density and VEGF expression”. For the same molecule, the “intraocular or systemic toxicity in vivo” value in data set [8] (i.p. dosing in L-CNV mice) is listed as “not observed obvious intraocular or systemic toxicity”. Moreover, the L-CNV volume entry in data set [8] (i.p., 50 mg/kg twice daily, 5 days on/two days off, two weeks) is on record as “significantly reduced L-CNV volume”.
